Assay results reported in EP4817428A1, “SWEETNESS ENHANCER CONTAINING ERGOTHIONEINE AS ACTIVE INGREDIENT, AND FOOD OR BEVERAGE PRODUCT CONTAINING SAME” (Kikkoman Corporation, priority 2023, dated 2025).
Where two headings read alike, the source gives them in different places.

Experiments:
[1] = Test 5: sensory evaluation, selection of glucose sample of equivalent sweetness; type: in vivo; conditions: 15% glucose sample containing 60 ppm ERG
Protocol: Glucose was added to pure water to prepare glucose samples having six concentrations of 0%, 13%, 14%, 15%, 16%, and 17%; and as a seventh sample, a sample in which ergothioneine was added to 15% glucose to a final concentration of 60 ppm was prepared.
(§1) Sweetness was sensorially evaluated by the same expert panel of five trained sweetness-sensitive subjects as in Test 1. The panel of five experts was asked to select a sample having an equivalent sweetness from among the 1st to 6th glucose samples (the concentration was not disclosed to the panel) regarding the sweetness of the 7th 15% glucose sample containing 60 ppm ERG.

[2] = type: in vivo
Protocol: Evaluation results of sweetness of test product compared with control • ∘: Sweetness was enhanced compared to the control. • ◇: Sweetness was similar to that of the control. […]
(§2) A drinking test by a panel of three experts was conducted on the prepared soy milk to which ERG was added at each concentration (the concentration was not disclosed to the panel), using a prepared soy milk to which no ergothioneine was added (ERG0) as a control, and the sweetness was sensorially evaluated by a paired comparison test.

[3] = Test 9 (5): paired comparison test of sweetness, 10% aspartame sample; type: in vivo; conditions: 10% aspartame samples
Protocol: (§4) In the following Test 9, sensory evaluation was performed by a panel of three experts in the same paired comparison test as in Tests 3, 5, and 7.
Samples were prepared by adding ERG to a 10% aspartame sample of aspartame (Pal Sweet Slim Up Sugar, Ajinomoto Co., Inc.) to the ERG concentrations shown in Table 16 (ERG0 to 20). Pairs combining a control 10% aspartame sample and a 10% aspartame sample containing ERG at each concentration were presented, and the panel evaluated which sample of the presented pair was perceived to be sweeter by a paired comparison test.

[4] = Test 9 (7): paired comparison test of sweetness, 12.5% glycine sample; type: in vivo; conditions: 12.5% glycine samples
Protocol: as §4
Pairs combining a control 12.5% glycine sample and a 12.5% glycine sample containing ERG at each concentration were presented, and the panel evaluated which sample of the presented pair was perceived to be sweeter by a paired comparison test.

[5] = Test 9 (6): paired comparison test of sweetness, 0.1% stevia sample; type: in vivo; conditions: 0.1% stevia samples
Protocol: as §4
Pairs combining a control 0.1% stevia sample and a 0.1% stevia sample containing ERG at each concentration were presented, and the panel evaluated which sample of the presented pair was perceived to be sweeter by a paired comparison test.

[6] = type: in vivo; conditions: ERG added to water to a final concentration of 60 ppm; all the five panelists
Protocol: In the same manner as in Test 1, sucrose samples having six concentrations of 0%, 1%, 1.5%, 2%, 2.5%, and 3%, and as a seventh sample, a sample in which ergothioneine was added to water to a final concentration of 60 ppm were prepared. A drinking test by the same expert panel of five as in Test 1 was conducted, and after tasting each sample and before tasting the next sample, the mouth was completely rinsed with water at room temperature, and sweetness was sensorially evaluated. The panel of five experts was asked to select a sample having an equivalent sweetness from among the 1st to 6th sucrose samples (the concentration was not disclosed to the panel) regarding the sweetness of the 7th sample.

[7] = Test 9 (4): paired comparison test of sweetness, 50% oligosaccharide sample; type: in vivo; conditions: 50% oligosaccharide samples
Protocol: as §4
Samples were prepared by adding ERG to a 50% oligosaccharide sample of an oligosaccharide (Fuji Oligo #450, Nihon Shokuhin Kako Co., Ltd.) to the ERG concentrations shown in Table 15 (ERG0 to 10). Pairs combining a control 50% oligosaccharide sample and a 50% oligosaccharide sample containing ERG at each concentration were presented, and the panel evaluated which sample of the presented pair was perceived to be sweeter by a paired comparison test.

[8] = type: in vivo; conditions: amakuchi soy sauce
Protocol: (§3) Evaluation results of sweetness of test product compared with control • ∘: Sweetness was enhanced compared to the control. • ◇: Sweetness was similar to that of the control.
as §2, with “the” for “the prepared”, “sauce” for “milk”, “a” for “a prepared”
The same test as in (1) described above was conducted by adding ERG to a commercially available amakuchi soy sauce (Golden Murasaki, Fundokin Shoyu).

[9] = type: in vivo; conditions: milk
Protocol: as §3
Samples of milk (EGR0.5 to 20) were prepared by adding ergothioneine to commercially available milk to final concentrations of 0.5 ppm, 1 ppm, 3 ppm, 5 ppm, 10 ppm, and 20 ppm.
as §2, with “the” for “the prepared soy”, “a” for “a prepared soy”

[10] = type: in vivo; remark: listed apart in the source
Protocol: Samples were prepared by adding ergothioneine to 1% to 50% sucrose solutions to final concentrations of 0 ppm, 0.05 ppm, 0.1 ppm, 0.25 ppm, and 0.5 ppm (ERG0 to 0.5 in Table 1 below; hereinafter, "ERGX" means a sample to which X ppm of ERG is added).
A drinking test by an expert panel of four, different from those in Tests 1 and 2, was conducted on 1% to 50% sucrose samples to which ERG was added at each concentration (the concentration was not disclosed to the panel), using a 1% to 50% sucrose sample to which no ergothioneine was added as a control, and sweetness was sensorially evaluated. After tasting each sample and before tasting the next sample, the mouth was completely rinsed with water at room temperature. Pairs combining the control 1% to 50% sucrose sample and the 1% to 50% sucrose sample containing ergothioneine at each concentration were presented to the expert panel, and the panel evaluated which sample of the presented pair was perceived to be sweeter by a paired comparison test.
as §3

[11] = physchem; type: physicochemical; conditions: 10% (100,000 ppm) dissolved in water at 40°C, left at 4°C; ERG precipitated 1 day later; read-out: concentration at which ERG could be contained in water
Protocol: ERG was dissolved in water at 40°C so that the ergothioneine concentration became 10% (100,000 ppm), and then left to stand at 4°C. When the solution was checked 1 day later, ERG was precipitated. From the above, the concentration at which ERG could be contained in water was less than 10%.

[12] = Test 7: sensory evaluation, selection of fructose sample of equivalent sweetness; type: in vivo; conditions: 5% fructose sample containing 60 ppm ERG
Protocol: Fructose was added to pure water to prepare fructose samples having six concentrations of 0%, 4.5%, 5%, 5.25%, 5.5%, and 6%; and as a seventh sample, a sample in which ergothioneine was added to 5% fructose to a final concentration of 60 ppm was prepared.
as §1, with “fructose” for “glucose”, “5% fructose” for “15% glucose”

[13] = Test 9 (2): paired comparison test of sweetness, 50% liquid sugar sample; type: in vivo; conditions: 50% liquid sugar samples
Protocol: as §4
Samples were prepared by adding ERG to a 50% liquid sugar sample of an isomerized sugar containing 55% or more of fructose (New Fructo 55 (NF55), Showa Sangyo Co., Ltd.) to the ERG concentrations shown in Table 13 (ERG0 to 20). Pairs combining a control 50% liquid sugar sample and a 50% liquid sugar sample containing ERG at each concentration were presented, and the panel evaluated which sample of the presented pair was perceived to be sweeter by a paired comparison test.

[14] = sucrose solution of 0.5% or more and less than 1%
[15] = sucrose solution of 1% or more and less than 10%
[16] = sucrose solution of 10% or more

SMILES: C[N+](C)(C)[C@@H](Cc1c[nH]c(=S)[nH]1)C(=O)[O-] [ERG, Ergothioneine]
- glucose solution of equivalent sweetness ([1]; three of the five panelists): 16%
- glucose solution of equivalent sweetness ([1]; two of the five panelists): 17%
- ERG content at which all the panelists evaluated the enhancement of sweetness ([2]; prepared soy milk): 5 ppm
- ERG content at which two panelists evaluated that the sweetness was enhanced ([2]; prepared soy milk): 3 ppm
- creamy feel ([2]; prepared soy milk containing 40 ppm of ERG): increased
- ERG added at which three panelists evaluated that the sweetness was enhanced [3]: ≥ 0.5 ppm
- ERG having a sweetness-enhancing effect, based on the aspartame content [3]: ≥ 0.0005 % by weight
- ERG added at which all the panelists evaluated that the sweetness was enhanced [4]: ≥ 0.5 ppm
- ERG having a sweetness-enhancing effect, based on the glycine content [4]: ≥ 0.0004 % by weight
- ERG added at which all the panelists evaluated that the sweetness was enhanced [5]: ≥ 0.5 ppm
- ERG having a sweetness-enhancing effect, based on the stevia content [5]: ≥ 0.05 % by weight
- sucrose solution of equivalent sweetness [6]: 0%
- ERG added at which all the panelists evaluated that the sweetness was enhanced [7]: ≥ 0.5 ppm
- ERG added at which all the panelists evaluated that the sweetness was enhanced [8]: ≥ 10 ppm
- ERG content at which all the panelists evaluated that the sweetness was enhanced [9]: 5 ppm
- ERG added at which all evaluated that the sweetness was enhanced [10, 14]: ≥ 0.5 ppm
- amount of ERG having a sweetness-enhancing effect relative to the sucrose content [10, 14]: ≥ 0.01 % by weight
- ERG added at which all evaluated that the sweetness was enhanced [10, 15]: ≥ 0.25 ppm
- amount of ERG having a sweetness-enhancing effect relative to the sucrose content [10, 15]: ≥ 0.0025 % by weight
- ERG added at which all evaluated that the sweetness was enhanced [10, 16]: ≥ 0.1 ppm
- amount of ERG having a sweetness-enhancing effect relative to the sucrose content [10, 16]: ≥ 0.0001 % by weight
- solubility at 24 h [11]: < 100 mg/mL
- fructose solution of equivalent sweetness ([12]; three of the five panelists): 5.5%
- fructose solution of equivalent sweetness ([12]; two of the five panelists): 5.25%
- ERG added at which all the panelists evaluated that the sweetness was enhanced [13]: ≥ 0.5 ppm
